Assay results taken from patent publication US6344487B1, “Treatment of insomnia” (priority 2000, dated 2002).
Structures can show the parent of a compound that is named as a salt.

Key:
Format in all cases: in vivo
Conditions in all cases: single patient
[1] = tested on: onset insomnia (non-chronic); assay: Treatment of patient with onset insomnia (non-chronic), follow up
Method: (§1) Administration of the compounds should take place within about one hour before bedtime. Again, the onset of the sedative effect will vary with the individual and the dosage prescribed.
The patient suffers from onset insomnia (non-chronic). At the time of consultation, they have normal affect with no depression, anxiety or substance overuse. They are prescribed mirtazapine 10 mg hs.
The patient suffers from onset insomnia (non-chronic). At the time of consultation, they have normal affect with no depression, anxiety or substance overuse. They are prescribed mirtazapine 7.5 mg hs.
The patient suffers from onset insomnia (non-chronic). At the time of consultation, they have normal affect with no depression, anxiety or substance overuse. They are prescribed mitazapine 5 mg hs.
The patient suffers from onset insomnia (non-chronic). At the time of consultation, they have normal affect with no depression, anxiety or substance overuse. They are prescribed mirtazapine 2 mg hs.
The patient suffers from onset insomnia (non-chronic). At the time of consultation, they have normal affect with no depression, anxiety or substance overuse. They are prescribed nortriptyline 10 mg hs.
The patient suffers from onset insomnia (non-chronic). At the time of consultation, they have normal affect with no depression, anxiety or substance overuse. They are prescribed nortriptyline 7.5 mg hs.
The patient suffers from onset insomnia (non-chronic). At the time of consultation, they have normal affect with no depression, anxiety or substance overuse. They are prescribed nortriptyline 5 mg hs.
The patient suffers from onset insomnia (non-chronic). At the time of consultation, they have normal affect with no depression, anxiety or substance overuse. They are prescribed nortriptyline 2 mg hs.

[2] = tested on: maintenance insomnia (non-chronic); assay: Treatment of patient with maintenance insomnia (non-chronic), follow up
Method: as §1
The patient suffers from maintenance insomnia (non-chronic) At the time of consultation, they have normal affect with no depression, anxiety or substance overuse. They are prescribed mirtazapine 10 mg hs.
The patient suffers from maintenance insomnia (non-chronic) At the time of consultation, they have normal affect with no depression, anxiety or substance overuse. They are prescribed mirtazapine 7.5 mg hs.
The patient suffers from maintenance insomnia (non-chronic) At the time of consultation, they have normal affect with no depression, anxiety or substance overuse. They are prescribed mirtazapine 5 mg hs.
The patient suffers from maintenance insomnia (non-chronic) At the time of consultation, they have normal affect with no depression, anxiety or substance overuse. They are prescribed mirtazapine 2 mg hs.
The patient suffers from maintenance insomnia (non-chronic). At the time of consultation, they have normal affect with no depression, anxiety or substance overuse. They are prescribed nortriptyline 10 mg hs.
The patient suffers from maintenance insomnia (non-chronic). At the time of consultation, they have normal affect with no depression, anxiety or substance overuse. They are prescribed nortriptyline 7.5 mg hs.
The patient suffers from maintenance insomnia (non-chronic) At the time of consultation, they have normal affect with no depression, anxiety or substance overuse. They are prescribed nortriptyline 5 mg hs.
The patient suffers from maintenance insomnia (non-chronic) At the time of consultation, they have normal affect with no depression, anxiety or substance overuse. They are prescribed nortriptyline 2 mg hs.

[3] = tested on: insomnia, possibly due to a desynchronization of circadian rhythms ("jet-lag"); assay: Treatment of business traveler with insomnia possibly due to desynchronization of circadian rhythms (jet-lag), follow up
Method: as §1
The patient, a business traveler, suffers from insomnia, possibly due to a desynchronization of circadian rhythms (“jet-lag”). At the time of consultation, they have normal affect with no depression, anxiety or substance overuse. They are prescribed mirtazapine 10 mg hs.
The patient, a business traveler, suffers from insomnia, possibly due to a desynchronization of circadian rhythms (“jet-lag”). At the time of consultation, they have normal affect with no depression, anxiety or substance overuse. They are prescribed mirtazapine 7.5 mg hs.
The patient, a business traveler, suffers from insomnia, possibly due to a desynchronization of circadian rhythms (“jet-lag”). At the time of consultation, they have normal affect with no depression, anxiety or substance overuse. They are prescribed mirtazapine 5 mg hs.
The patient, a business traveler, suffers from insomnia, possibly due to a desynchronization of circadian rhythms (“jet-lag”). At the time of consultation, they have normal affect with no depression, anxiety or substance overuse. They are prescribed mirtazapine 2 mg hs.
The patient, a business traveler, suffers from insomnia, possibly due to a desynchronization of circadian rhythms (“jet-lag”). At the time of consultation, they have normal affect with no depression, anxiety or substance overuse. They are prescribed nortriptyline 10 mg hs.
The patient, a business traveler, suffers from insomnia, possibly due to a desynchronization of circadian rhythms (“jet-lag”). At the time of consultation, they have normal affect with no depression, anxiety or substance overuse. They are prescribed nortriptyline 7.5 mg hs.
The patient, a business traveler, suffers from insomnia, possibly due to a desynchronization of circadian rhythms (“jet-lag”). At the time of consultation, they have normal affect with no depression, anxiety or substance overuse. They are prescribed nortriptyline 5 mg hs.
The patient, a business traveler, suffers from insomnia, possibly due to a desynchronization of circadian rhythms (“jet-lag”). At the time of consultation, they have normal affect with no depression, anxiety or substance overuse. They are prescribed nortriptyline 2 mg hs.

[4] = tested on: maintenance insomnia (chronic); assay: Treatment of patient with maintenance insomnia (chronic), follow up
Method: as §1
The patient suffers from maintenance insomnia (chronic). At the time of consultation, they have normal affect with no depression, anxiety or substance overuse. They are prescribed mirtazapine 10 mg hs.
The patient suffers from maintenance insomnia (chronic). At the time of consultation, they have normal affect with no depression, anxiety or substance overuse. They are prescribed mirtazapine 7.5 mg hs.
The patient suffers from maintenance insomnia (chronic). At the time of consultation, they have normal affect with no depression, anxiety or substance overuse. They are prescribed mirtazapine 5 mg hs.
The patient suffers from maintenance insomnia (chronic). At the time of consultation, they have normal affect with no depression, anxiety or substance overuse. They are prescribed mirtazapine 2 mg hs.
The patient suffers from maintenance insomnia (chronic). At the time of consultation, they have normal affect with no depression, anxiety or substance overuse. They are prescribed nortriptyline 10 mg hs.
The patient suffers from maintenance insomnia (chronic). At the time of consultation, they have normal affect with no depression, anxiety or substance overuse. They are prescribed nortriptyline 7.5 mg hs.
The patient suffers from maintenance insomnia (chronic). At the time of consultation, they have normal affect with no depression, anxiety or substance overuse. They are prescribed nortriptyline 5 mg hs.
The patient suffers from maintenance insomnia (chronic). At the time of consultation, they have normal affect with no depression, anxiety or substance overuse. They are prescribed nortriptyline 2 mg hs.

onset insomnia (chronic) = assay: Treatment of patient with onset insomnia (chronic), follow up
Method: as §1
The patient suffers from onset insomnia (chronic). At the time of consultation, they have normal affect with no depression, anxiety or substance overuse. They are prescribed mirtazapine 10 mg hs.
The patient suffers from onset insomnia (chronic). At the time of consultation, they have normal affect with no depression, anxiety or substance overuse. They are prescribed mirtazapine 7.5 mg hs.
The patient suffers from onset insomnia (chronic). At the time of consultation, they have normal affect with no depression, anxiety or substance overuse. They are prescribed mitazapine 5 mg hs.
The patient suffers from onset insomnia (chronic). At the time of consultation, they have normal affect with no depression, anxiety or substance overuse. They are prescribed mirtazapine 2 mg hs.
The patient suffers from onset insomnia (chronic). At the time of consultation, they have normal affect with no depression, anxiety or substance overuse. They are prescribed nortriptyline 10 mg hs.
The patient suffers from onset insomnia (chronic). At the time of consultation, they have normal affect with no depression, anxiety or substance overuse. They are prescribed nortriptyline 7.5 mg hs.
The patient suffers from onset insomnia (chronic). At the time of consultation, they have normal affect with no depression, anxiety or substance overuse. They are prescribed nortriptyline 5 mg hs.
The patient suffers from onset insomnia (chronic). At the time of consultation, they have normal affect with no depression, anxiety or substance overuse. They are prescribed nortriptyline 2 mg hs.

With CN1CCN2c3ncccc3Cc3ccccc3C2C1 (stereo not shown) [mirtazapine, 1,2,3,4,10,14b-hexahydro-2-methylpyrazino [2,1-a]pyrido [2,3-c]benzazepine] the “relief of onset insomnia at follow up” value ([1]; 2 mg hs) was “relieves the onset insomnia and has them sleeping well”, the “relief of onset insomnia at follow up” value ([1]; 5 mg hs) was “relieves the onset insomnia and has them sleeping well” and the “relief of onset insomnia at follow up” value ([1]; 7.5 mg hs) was “relieves the onset insomnia and has them sleeping well”. For the same compound, the “relief of onset insomnia at follow up” value ([1]; 10 mg hs) was “relieves the onset insomnia and has their sleeping well”, the “relief of insomnia at follow up” value ([2]; 2 mg hs) was “relieves the insomnia and has them sleeping well” and the “relief of insomnia at follow up” value ([2]; 5 mg hs) was “relieves the insomnia and has them sleeping well”. For the same compound, the “relief of insomnia at follow up” value ([2]; 7.5 mg hs) was “relieves the insomnia and has them sleeping well”, the “relief of insomnia at follow up” value ([2]; 10 mg hs) was “relieves the insomnia and has their sleeping well” and the “relief of insomnia at follow up” value ([3]; 2 mg hs) was “relieves the insomnia and has them sleeping well”. The “relief of insomnia at follow up” value ([3]; 5 mg hs) was “relieves the insomnia and has them sleeping well”, the “relief of insomnia at follow up” value ([3]; 7.5 mg hs) was “relieves the insomnia and has them sleeping well” and the “relief of insomnia at follow up” value ([3]; 10 mg hs) was “relieves the insomnia and has their sleeping well”. For the same compound, the “relief of insomnia at follow up” value ([4]; 2 mg hs) was “relieves the insomnia and has them sleeping well”, the “relief of insomnia at follow up” value ([4]; 5 mg hs) was “relieves the insomnia and has them sleeping well” and the “relief of insomnia at follow up” value ([4]; 7.5 mg hs) was “relieves the insomnia and has them sleeping well”. For the same compound, the “relief of insomnia at follow up” value ([4]; 10 mg hs) was “relieves the insomnia and has their sleeping well”, the “relief of onset insomnia at follow up” value (onset insomnia (chronic); 2 mg hs) was “relieves the onset insomnia and has them sleeping well” and the “relief of onset insomnia at follow up” value (onset insomnia (chronic); 5 mg hs) was “relieves the onset insomnia and has them sleeping well”. For the same compound, the “relief of onset insomnia at follow up” value (onset insomnia (chronic); 7.5 mg hs) was “relieves the onset insomnia and has them sleeping well” and the “relief of onset insomnia at follow up” value (onset insomnia (chronic); 10 mg hs) was “relieves the onset insomnia and has their sleeping well”.
CNCCC=C1c2ccccc2CCc2ccccc21 [nortriptyline, 1 propanamine,3-(10,11-dihydro-5H-dibenzo[a,d]cyclohepten-5-ylidene)-N-methyl-, hydrochloride] was tested, and the “relief of onset insomnia at follow up” value ([1]; 2 mg hs) was “relieves the onset insomnia and has their sleeping well”, the “relief of onset insomnia at follow up” value ([1]; 5 mg hs) was “relieves the onset insomnia and has them sleeping well” and the “relief of onset insomnia at follow up” value ([1]; 7.5 mg hs) was “relieves the onset insomnia and has them sleeping well”. The “relief of onset insomnia at follow up” value ([1]; 10 mg hs) was “relieves the onset insomnia and has their sleeping well”, the “relief of insomnia at follow up” value ([2]; 2 mg hs) was “relieves the insomnia and has their sleeping well” and the “relief of insomnia at follow up” value ([2]; 5 mg hs) was “relieves the insomnia and has them sleeping well”. The “relief of insomnia at follow up” value ([2]; 7.5 mg hs) was “relieves the insomnia and has them sleeping well”, the “relief of insomnia at follow up” value ([2]; 10 mg hs) was “relieves the insomnia and has their sleeping well” and the “relief of insomnia at follow up” value ([3]; 2 mg hs) was “relieves the insomnia and has their sleeping well”. The “relief of insomnia at follow up” value ([3]; 5 mg hs) was “relieves the insomnia and has them sleeping well”, the “relief of insomnia at follow up” value ([3]; 7.5 mg hs) was “relieves the insomnia and has them sleeping well” and the “relief of insomnia at follow up” value ([3]; 10 mg hs) was “relieves the insomnia and has their sleeping well”. For the same compound, the “relief of insomnia at follow up” value ([4]; 2 mg hs) was “relieves the insomnia and has their sleeping well”, the “relief of insomnia at follow up” value ([4]; 5 mg hs) was “relieves the insomnia and has them sleeping well” and the “relief of insomnia at follow up” value ([4]; 7.5 mg hs) was “relieves the insomnia and has them sleeping well”. The “relief of insomnia at follow up” value ([4]; 10 mg hs) was “relieves the insomnia and has their sleeping well”, the “relief of onset insomnia at follow up” value (onset insomnia (chronic); 2 mg hs) was “relieves the onset insomnia and has their sleeping well” and the “relief of onset insomnia at follow up” value (onset insomnia (chronic); 5 mg hs) was “relieves the onset insomnia and has them sleeping well”. For the same compound, the “relief of onset insomnia at follow up” value (onset insomnia (chronic); 7.5 mg hs) was “relieves the onset insomnia and has them sleeping well” and the “relief of onset insomnia at follow up” value (onset insomnia (chronic); 10 mg hs) was “relieves the onset insomnia and has their sleeping well”.
